Test results taken from patent US12161722B2, “Bifunctional heterocyclic compound having BTK degradation function via ubiquitin proteasome pathway, and use thereof” (KOREA RESEARCH INSTITUTE OF CHEMICAL TECHNOLOGY, priority 2021, dated 2024).

Molecular target: T1, WT BTK protein (Homo sapiens, UniProt Q06187)
T1 construct: measured for intracellular BTK protein levels by Western blotting; endogenous in cells; host or cells: TMD-8 or RAMOS cells
Test: BTK protein degradation assay (Western blotting), WT BTK
Format: cell-based
Conditions: concentration range accounting for 50% degradation of WT BTK protein, TMD-8 or RAMOS cells, 24 hours
In short: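 BTK levels were read by Western blotting (GAPDH and β-actin normalisers) in RIPA lysates of TMD-8 cells exposed to compounds for 24 h at 1×10^6 cells/mL. Results scored in ranges of the concentration producing 50% loss of WT BTK.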

T1 sequence (Q06187 whole entry): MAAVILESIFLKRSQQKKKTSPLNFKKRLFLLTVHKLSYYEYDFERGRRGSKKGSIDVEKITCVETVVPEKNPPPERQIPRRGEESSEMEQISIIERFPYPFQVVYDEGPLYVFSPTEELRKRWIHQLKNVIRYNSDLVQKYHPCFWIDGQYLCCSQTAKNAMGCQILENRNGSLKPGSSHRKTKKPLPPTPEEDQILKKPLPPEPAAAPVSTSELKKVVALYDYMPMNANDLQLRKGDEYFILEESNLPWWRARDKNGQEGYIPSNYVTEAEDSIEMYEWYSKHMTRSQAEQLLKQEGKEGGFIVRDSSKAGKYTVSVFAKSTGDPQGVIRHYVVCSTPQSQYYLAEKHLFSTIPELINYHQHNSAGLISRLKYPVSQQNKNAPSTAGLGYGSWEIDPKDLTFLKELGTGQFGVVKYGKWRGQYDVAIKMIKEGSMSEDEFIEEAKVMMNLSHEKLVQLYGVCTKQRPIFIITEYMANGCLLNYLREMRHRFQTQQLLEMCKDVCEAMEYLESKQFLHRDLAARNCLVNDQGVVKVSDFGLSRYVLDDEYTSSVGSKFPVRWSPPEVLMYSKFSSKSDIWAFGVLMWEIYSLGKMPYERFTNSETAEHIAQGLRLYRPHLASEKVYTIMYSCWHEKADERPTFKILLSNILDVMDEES

Work on `Cc1cccc(C)c1Nc1nn(C)c2nc(Nc3ccc4c(c3)CN(C(=O)Cc3cccc(NC5=CC(=O)N(C6CCC(=O)NC6=O)C5=O)c3)CC4)ncc12` (stereo not shown) [Compound 192, 3-(3-((3-(2-(7-((3-((2,6-Dimethylphenyl)amino)-1-methyl-1H-pyrazolo[3,4-d]pyrimidin-6-yl)amino)-3,4-dihydroisoquinolin-2 (1H)-yl)-2-oxoethyl)phenyl)amino)-2,5-dioxo-2,5-dihydro-1H-pyrrol-1-yl)piperidin-2,6-one] yielded a DC50 of 0.01 to 1 µM.

Work on `Cc1cccc(C)c1Nc1nn(C)c2nc(Nc3ccc4c(c3)CN(CC3CCN(C(=O)Cc5cccc(NC6=CC(=O)N(C7CCC(=O)NC7=O)C6=O)c5)CC3)CC4)ncc12` (stereo not shown) [Compound 193, 3-(3-((3-(2-(4-((7-((3-((2,6-Dimethylphenyl)amino)-1-methyl-1H-pyrazolo[3,4-d]pyrimidin-6-yl)amino)-3,4-dihydroisoquinolin-2 (1H)-yl)methyl)piperidin-1-yl)-2-oxoethyl)phenyl)amino)-2,5-dioxo-2,5-dihydro-1H-pyrrol-1-yl)piperidin-2,6-one] yielded a DC50 of 0.0001 to 0.01 µM.

Compound `Cc1cccc(C)c1Nc1nn(C)c2nc(Nc3ccc4c(c3)CN(C(=O)COc3ccc5c(c3)C(=O)N(C3CCC(=O)NC3=O)C5=O)CC4)ncc12` (stereo not shown) [Compound 194, 5-(2-(7-((3-((2,6-Dimethylphenyl)amino)-1-methyl-1H-pyrazolo[3,4-d]pyrimidin-6-yl)amino)-3,4-dihydroisoquinolin-2 (1H)-yl)-2-oxoethoxy)-2-(2,6-dioxopiperidin-3-yl)isoindoline-1,3-dione] has a DC50 of 0.01 to 1 µM.

Compound `Cc1cccc(Br)c1Nc1nn(C)c2nc(Nc3ccc4c(c3)CN(CC3CCN(c5ccc6c(c5)C(=O)N(C5CCC(=O)NC5=O)C6=O)CC3)CC4)ncc12` (stereo not shown) [Compound 195, 5-(4-((7-((3-((2-Bromo-6-methylphenyl)amino)-1-methyl-1H-pyrazolo[3,4-d]pyrimidin-6-yl)amino)-3,4-dihydroisoquinolin-2 (1H)-yl)methyl)piperidin-1-yl)-2-(2,6-dioxopiperidin-3-yl)isoindoline-1,3-dione] has a DC50 of 0.0001 to 0.01 µM.

`Cc1cccc(C)c1Nc1nn(C)c2nc(Nc3ccc4c(c3)CN(C(=O)C3(NCC5CCN(c6ccc7c(c6)C(=O)N(C6CCC(=O)NC6=O)C7=O)CC5)CC3)CC4)ncc12` (stereo not shown) [Compound 199, 5-(4-(((1-(7-((3-((2,6-Dimethylphenyl)amino)-1-methyl-1H-pyrazolo[3,4-d]pyrimidin-6-yl)amino)-1,2,3,4-tetrahydroisoquinoline-2-carbonyl)cyclopropyl)amino)methyl)piperidin-1-yl)-2-(2,6-dioxopiperidin-3-yl)isoindoline-1,3-dione] was tested, and the DC50 was 0.01 to 1 µM.

`Cc1cccc(C)c1Nc1nn(C)c2nc(Nc3ccc4c(c3)CN(CC3CCN(C5=CC(=O)N(C6CCC(=O)NC6=O)C5=O)CC3)CC4)ncc12` (stereo not shown) [Compound 201, 3-(3-(4-((7-((3-((2,6-dimethylphenyl)amino)-1-methyl-1H-pyrazolo[3,4-d]pyrimidin-6-yl)amino)-3,4-dihydroisoquinolin-2 (1H)-yl)methyl)piperidin-1-yl)-2,5-dioxo-2,5-dihydro-1H-pyrrol-1-yl)piperidin-2,6-one] gave a DC50 of 0.0001 to 0.01 µM.

For `Cc1cccc(C)c1Nc1nn(C)c2nc(Nc3ccc4c(c3)CN(CC3(NC(=O)C5CCN(c6ccc7c(c6)C(=O)N(C6CCC(=O)NC6=O)C7=O)CC5)CC3)CC4)ncc12` (stereo not shown) [Compound 204, N-(1-((7-((3-((2,6-dimethylphenyl)amino)-1-methyl-1H-pyrazolo[3,4-d]pyrimidin-6-yl)amino)-3,4-dihydroisoquinolin-2 (1H)-yl)methyl)cyclopropyl)-1-(2-(2,6-dioxopiperidin-3-yl)-1,3-dioxoisoindolin-5-yl)piperidine-4-carboxamide], the DC50 was 0.0001 to 0.01 µM.

Compound `Cc1cccc(C)c1Nc1nn(C)c2nc(Nc3ccc4c(c3)CN(CC3(NC(=O)COc5ccc6c(c5)C(=O)N(C5CCC(=O)NC5=O)C6=O)CC3)CC4)ncc12` (stereo not shown) [Compound 205, N-(1-((7-((3-((2,6-dimethylphenyl)amino)-1-methyl-1H-pyrazolo[3,4-d]pyrimidin-6-yl)amino)-3,4-dihydroisoquinolin-2 (1H)-yl)methyl)cyclopropyl)-2-((2-(2,6-dioxopiperidin-3-yl)-1,3-dioxoisoindolin-5-yl)oxy)acetamide] has a DC50 of 0.01 to 1 µM.

`Cc1cccc(C)c1Nc1nn(C)c2nc(Nc3ccc4c(c3)CN(CC3CCN(c5cc6c(cc5F)C(=O)N(C5CCC(=O)NC5=O)C6=O)CC3)CC4)ncc12` (stereo not shown) [Compound 208, 5-(4-((7-((3-((2,6-Dimethylphenyl)amino)-1-methyl-1H-pyrazolo[3,4-d]pyrimidin-6-yl)amino)-3,4-dihydroisoquinolin-2 (1H)-yl)methyl)piperidin-1-yl)-2-(2,6-dioxopiperidin-3-yl)-6-fluoroisoindoline-1,3-dione] showed a DC50 of 0.0001 to 0.01 µM.

`Cc1cccc(C)c1Nc1nn(C)c2nc(Nc3ccc4c(c3)CN(CC3CCN(C(=O)C5CCN(c6cc7c(cc6F)C(=O)N(C6CCC(=O)NC6=O)C7=O)CC5)CC3)CC4)ncc12` (stereo not shown) [Compound 210, 5-(4-(4-((7-((3-((2,6-Dimethylphenyl)amino)-1-methyl-1H-pyrazolo[3,4-d]pyrimidin-6-yl)amino)-3,4-dihydroisoquinolin-2 (1H)-yl)methyl)piperidine-1-carbonyl)piperidin-1-yl)-2-(2,6-dioxopiperidin-3-yl)-6-fluoroisoindoline-1,3-dione] was tested, and the DC50 was 0.0001 to 0.01 µM.

`Cc1cccc(C)c1Nc1nn(C)c2nc(Nc3ccc4c(c3)CN(CC3CCN(C(=O)CNc5cc6c(cc5F)C(=O)N(C5CCC(=O)NC5=O)C6=O)CC3)CC4)ncc12` (stereo not shown) [Compound 211, 5-((2-(4-((7-((3-((2,6-Dimethylphenyl)amino)-1-methyl-1H-pyrazolo[3,4-d]pyrimidin-6-yl)amino)-3,4-dihydroisoquinolin-2 (1H)-yl)methyl)piperidin-1-yl)-2-oxoethyl)amino)-2-(2,6-dioxopiperidin-3-yl)-6-fluoroisoindoline-1,3-dione] was tested, and the DC50 was 0.0001 to 0.01 µM.

Compound `Cn1nc(Nc2c(Br)cccc2Br)c2cnc(Nc3ccc4c(c3)CN(CC3CCN(c5ccc6c(c5)C(=O)N(C5CCC(=O)NC5=O)C6=O)CC3)CC4)nc21` (stereo not shown) [Compound 217, 5-(4-((7-((3-((2,6-Dibromophenyl)amino)-1-methyl-1H-pyrazolo[3,4-d]pyrimidin-6-yl)amino)-3,4-dihydroisoquinolin-2 (1H)-yl)methyl)piperidin-1-yl)-2-(2,6-dioxopiperidin-3-yl)isoindoline-1,3-dione] has a DC50 of 0.0001 to 0.01 µM.

With `Cn1nc(Nc2c(Cl)cccc2Br)c2cnc(Nc3ccc4c(c3)CN(CC3CCN(c5ccc6c(c5)C(=O)N(C5CCC(=O)NC5=O)C6=O)CC3)CC4)nc21` (stereo not shown) [Compound 218, 5-(4-((7-((3-((2-Bromo-6-chlorophenyl)amino)-1-methyl-1H-pyrazolo[3,4-d]pyrimidin-6-yl)amino)-3,4-dihydroisoquinolin-2 (1H)-yl)methyl)piperidin-1-yl)-2-(2,6-dioxopiperidin-3-yl)isoindoline-1,3-dione] the DC50 was 0.0001 to 0.01 µM.

`Cn1nc(Nc2c(Cl)cccc2I)c2cnc(Nc3ccc4c(c3)CN(CC3CCN(c5ccc6c(c5)C(=O)N(C5CCC(=O)NC5=O)C6=O)CC3)CC4)nc21` (stereo not shown) [Compound 219, 5-(4-((7-((3-((2-chloro-6-iodophenyl)amino)-1-methyl-1H-pyrazolo[3,4-d]pyrimidin-6-yl)amino)-3,4-dihydroisoquinolin-2 (1H)-yl)methyl)piperidin-1-yl)-2-(2,6-dioxopiperidin-3-yl)isoindoline-1,3-dione] showed a DC50 of 0.0001 to 0.01 µM.

`Cc1cccc(C)c1Nc1nn(C)c2nc(Nc3ccc4c(c3)CN(CC3CCN(c5cc6c(cc5F)C(=O)N(C5CCC(=O)NC5=O)C6)CC3)CC4)ncc12` (stereo not shown) [Compound 220, 3-(5-(4-((7-((3-((2,6-Dimethylphenyl)amino)-1-methyl-1H-pyrazolo[3,4-d]pyrimidin-6-yl)amino)-3,4-dihydroisoquinolin-2 (1H)-yl)methyl)piperidin-1-yl)-6-fluoro-1-oxoisoindolin-2-yl)piperidin-2,6-one] gave a DC50 of 0.0001 to 0.01 µM.

With `Cc1cc(F)cc(C)c1Nc1nn(C)c2nc(Nc3ccc4c(c3)CN(CC3CCN(c5ccc6c(c5)C(=O)N(C5CCC(=O)NC5=O)C6=O)CC3)CC4)ncc12` (stereo not shown) [Compound 221, 2-(2,6-dioxopiperidin-3-yl)-5-(4-((7-((3-((4-fluoro-2,6-dimethylphenyl)amino)-1-methyl-1H-pyrazolo[3,4-d]pyrimidin-6-yl)amino)-3,4-dihydroisoquinolin-2 (1H)-yl)methyl)piperidin-1-yl)isoindoline-1,3-dione] the DC50 was 0.0001 to 0.01 µM.

In the case of `Cc1cccc(C)c1Nc1nn(C)c2nc(Nc3ccc(C4CCN(C(=O)CC5CCN(c6ccc7c(c6)C(=O)N(C6CCC(=O)NC6=O)C7=O)CC5)CC4)cc3)ncc12` (stereo not shown) [Compound 222, 5-(4-(2-(4-(4-((3-((2,6-Dimethylphenyl)amino)-1-methyl-1H-pyrazolo[3,4-d]pyrimidin-6-yl)amino)phenyl)piperidin-1-yl)-2-oxoethyl)piperidin-1-yl)-2-(2,6-dioxopiperidin-3-yl)isoindoline-1,3-dione], the DC50 is reported as 0.0001 to 0.01 µM.

`Cc1cccc(C)c1Nc1nn(C)c2nc(Nc3ccc(C4CCN(C(=O)CN5CCN(c6ccc7c(c6)C(=O)N(C6CCC(=O)NC6=O)C7=O)CC5)CC4)cc3)ncc12` (stereo not shown) [Compound 225, 5-(4-(2-(4-(4-((3-((2,6-dimethylphenyl)amino)-1-methyl-1H-pyrazolo[3,4-d]pyrimidin-6-yl)amino)phenyl)piperidin-1-yl)-2-oxoethyl)piperazin-1-yl)-2-(2,6-dioxopiperidin-3-yl)isoindoline-1,3-dione] gave a DC50 of 0.0001 to 0.01 µM.

Work on `Cc1cccc(C)c1Nc1nn(C)c2nc(Nc3ccc(C4CCN(C(=O)CN5CCN(c6ccc7c(c6)C(=O)N(C6CCC(=O)NC6=O)C7=O)CC5)CC4)c(F)c3)ncc12` (stereo not shown) [Compound 226, 5-(4-(2-(4-(4-((3-((2,6-Dimethylphenyl)amino)-1-methyl-1H-pyrazolo[3,4-d]pyrimidin-6-yl)amino)-2-fluorophenyl)piperidin-1-yl)-2-oxoethyl)piperazin-1-yl)-2-(2,6-dioxopiperidin-3-yl)isoindoline-1,3-dione] yielded a DC50 of 0.0001 to 0.01 µM.
